Ends that are not written are not given here.

Consider 15 compounds from US9848603B2, “Methods for protecting plants with antifungal compositions” (priority 2008, dated 2017).

Assay [1] deals with Fov hyphae. The experiment in a line: Detection of reactive oxygen species (DHR123 oxidation) in response to NaD1. The settings on record: for effect of ROS scavenger on NaD1-induced DHR123 oxidation: in the presence of ascorbic acid or TEMPO.
The subject of assay [2] is Fusarium oxysporum f. sp. vasinfectum (Fov). Format: cell-based.
The test system is the same in assay [3]. As to the kind of experiment: Growth of Fusarium oxysporum in the presence of NaD1 and chemical fungicides in vitro. Type of assay: cell-based. The settings on record: Fov growth curves, combination with NaD1. The protocol:
The inhibitory effects of defensin (NaD1) and chemical fungicides on the growth of Fusarium oxysporum f. sp. vasinfectum (Fov) (Australian isolate VCG01111 isolated from cotton and provided by Farming Systems Institute, DPI, Queensland, Australia) were measured essentially as described by Broekaert, et al (1990). Spores were isolated from sporulating cultures growing in ½ strength potato dextrose broth (PDB). The Fov culture was grown in ½ PDB for 1-2 weeks at room temperature, before spores were separated from hyphal matter by filtration through sterile tissue paper. The concentration of spores in the filtrate was measured using a hemocytometer. NaD1 and the fungicides were prepared as described in Example 1. The conditions used for the fungal growth assay were the same as those described in Example 1.

A further assay deals with Leptosphaeria maculans. As to the kind of experiment: Growth of Leptosphaeria maculans in the presence of NaD1 and chemical fungicides in vitro. Type of assay: cell-based. As to conditions: L. maculans, combination with NaD1. The procedure: The defensin (NaD1) and the chemical fungicides prothioconazole (Sigma-Aldrich Cat #34232, 99.9% pure) and fluquinconazole (Nova Chem, Cat #C13805000, 98.5% pure) were assessed for their individual and combined inhibitory effects on the growth of Leptosphaeria maculans (Australian isolate IBCN18, Prof. B. Howlett) in vitro.
Leptosphaeria maculans was grown in 10% (v/v) V8 medium for about 2 weeks. Spores were collected by filtration through sterile muslin and adjusted to a final concentration of 5×10^4 spores/mL. The conditions used for the fungal growth assay were the same as those described in Example 1 except 10% (v/v) V8 medium was used.

For another assay, the system named is Verticillium dahliae. The experiment in a line: Growth of Verticillium dahliae in the presence of NaD1 and chemical fungicides in vitro. Type of assay: cell-based. As to conditions: V. dahliae growth curves, combination with NaD1. The procedure: The inhibitory effects of defensin (NaD1) and chemical fungicides were assayed on growth of Verticillium dahliae (Australian isolate VCG-4B, Dr. Stephen Allen, Cotton Seed Distributors, Narrabri, NSW, Australia) in vitro.
Spores of V. dahliae were isolated from sporulating cultures growing in Czapek-Dox broth (Difco) for 1-2 weeks at room temperature. Spores were separated from hyphal matter by filtration through sterile tissue paper and the concentration of spores in the filtrate was measured using a hemocytometer. NaD1 and the fungicides were prepared as described in Example 1. The conditions used for the fungal growth assay were the same as those described in Example 1 except that Czapek-Dox broth was used in place of PDB.

The next assay has as its system Fusarium graminearum. The experiment in a line: microbe, parasite or virus in culture. Format: cell-based.
The next assay relates to Saccharomyces cerevisiae. The experiment in a line: Effect of NaD1 on growth of yeast strains.
In assay [4] the test system is Fov hyphae. As to the kind of experiment: Uptake of fluorescently labeled NaD1 (NaD1-bimane) by fluorescence microscopy. The settings on record: live hyphae.
Protocol: Hyphae grown for 18 h as described were treated with NaD1-bimane (2 μM) for between 10 min and 6 h. Hyphae were then visualized by fluorescence microscopy using an MWU filter (excitation wavelength of 330-385 nm).
Assay [5] relates to Fov hyphae. The experiment in a line: Membrane permeabilization of Fov hyphae, SYTOX green uptake. The settings on record: 0.1, 2 or 10 μM NaD1 or 10 μM NaD1R&A. Format: cell-based, Fusarium oxysporum f. sp. vasinfectum.
The next assay has as its system Candida albicans. The experiment in a line: Effect of NaD1 on growth of yeast strains.

Protocol for Candida albicans: (§1) The effect of NaD1 on the growth of the yeast strains Candida albicans, Pichia pastoris and Saccharomyces cerevisiae (from Department of Microbiology, La Trobe University) was assayed in microtitre plates. Cells were grown in YPD for 48 h, then counted using a haemocytometer and diluted to a concentration of 5×10^4 cells/mL in fresh YPD. Cell suspension (100 μL) containing 0-10 μM NaD1 was added to the wells of a 96-well microtitre plate and incubated for 48 h at 30° C. Growth was determined by measuring the optical density at 595 nm using a microtitre plate reader. Each test was performed in quadruplicate.
Protocol for Saccharomyces cerevisiae: as §1

For the compound `CC1(C)CCCC(C)(C)N1[O]` [TEMPO], the “effect of ROS scavenger on NaD1-induced DHR123 oxidation” value in the assay with Fov hyphae [1] is listed as “did not alter the level of fluorescence”.

With `O=C1O[C@H]([C@@H](O)CO)C(O)=C1O` [ascorbic acid, Ascorbic acid], in the assay with Fov hyphae [1], the “effect of ROS scavenger on NaD1-induced DHR123 oxidation” value is on record as “did not alter the level of fluorescence”. Further, in assay [2], the “effect of ROS scavenger on growth inhibition of Fov by NaD1” value is “nor did the presence of 10 mM ascorbic acid affect growth inhibition of Fov by NaD1”.

Regarding `CO/C=C(/C(=O)OC)c1ccccc1Oc1cc(Oc2ccccc2C#N)ncn1` [azoxystrobin], in assay [3], the “synergism with NaD1” value is listed as “synergistic effect”.

For the compound `CO/N=C(/C1=NOCCO1)c1ccccc1Oc1ncnc(Oc2ccccc2Cl)c1F` [fluoxastrobin], in assay [3], the “synergism with NaD1” value is “synergy”.

Regarding `O=c1c2cc(F)ccc2nc(-n2cncn2)n1-c1ccc(Cl)cc1Cl` [fluquinconazole], the “enhancement of fungicide activity by defensin” value with Leptosphaeria maculans is given as “synergistic”.

Take `C[Si](Cn1cncn1)(c1ccc(F)cc1)c1ccc(F)cc1` [flusilazole]: the “synergism with NaD1” value with Verticillium dahliae is recorded as “Synergism”.

For the compound `CO/C=C(/C(=O)OC)c1ccccc1COc1cccc(C(F)(F)F)n1` [picoxystrobin], the “synergism with NaD1” value in assay [3] is listed as “synergy”.

Turning to `CCCC1COC(Cn2cncn2)(c2ccc(Cl)cc2Cl)O1` (stereo not drawn) [propiconazole], the “synergism with NaD1” value in the assay on Verticillium dahliae was “Synergism”; in assay [3], “Synergism”; with Fusarium graminearum (F. graminearum growth curves, combination with NaD1), “Synergism”. Moreover, the “toxicity with Fusarium graminearum” value in the assay on Fusarium graminearum (0.24 μM NaD1 combined with 1 mg/L propiconazole) is listed as “significantly enhanced”. Further, the inhibition at 0.06 µg/mL with Fusarium graminearum (Fusarium graminearum, read-out: inhibition of fungal growth) was around 13%. Further, in the assay on Fusarium graminearum (combination of 0.5 μM defensin and 0.06 mg/L propiconazole), the “inhibition of fungal growth” value is “about 78%”.

Regarding `OC(Cc1ccccc1Cl)(Cn1nc[nH]c1=S)C1(Cl)CC1` (stereo not drawn) [prothioconazole], in the assay on Leptosphaeria maculans, the “enhancement of fungicide activity by defensin” value is reported as “synergistic”.

Turning to `CC(C)(C)C(O)(CCc1ccc(Cl)cc1)Cn1cncn1` (stereo not drawn) [tebuconazole], in the assay on Verticillium dahliae, the “synergism with NaD1” value was “Synergism”.

For “DmAMP1: plant defensin from dahlia (ELCEKASKTWSGNCGNTGHCDNQCKSWEGAAHGACHVRNGKHMCFCYFNC; UniProt P0C8Y4 1-50, looked up) [reference compound]”, in the assay on Saccharomyces cerevisiae, the effect on growth entry is “inhibited the growth”.

Turning to “NaD1 labeled with FITC: NaD1 labeled with FITC via reactive amine groups (RECKTESNTFPGICITKPPCRKACISEKFTDGHCSKILRRCLCTKPC; cysteine pairing not given here; also: FITC label via reactive amine groups; UniProt Q8GTM0 26-72, looked up)”, in [2], the “antifungal activity of labeled NaD1” value is listed as “not biologically active”.

With “NaD1-bimane: NaD1 labeled with the fluorophore bimane amine on carboxyl residues (RECKTESNTFPGICITKPPCRKACISEKFTDGHCSKILRRCLCTKPC; cysteine pairing not given here; also: bimane amine fluorophore on carboxyl residues; UniProt Q8GTM0 26-72, looked up)”, the “antifungal activity of labeled NaD1” value in assay [2] is on record as “retained full antifungal activity”. In addition, the “time at which internalization was observed” value in the assay with Fov hyphae [4] lay in the range of 20 to 30 min.

For “NaD1R&A: NaD1 with cysteine residues reduced and alkylated (RECKTESNTFPGICITKPPCRKACISEKFTDGHCSKILRRCLCTKPC; also: cysteines reduced and alkylated; UniProt Q8GTM0 26-72, looked up)”, the “ROS production (DHR123 oxidation fluorescence)” value with Fov hyphae [1] (NaD1 0.1, 2 and 10 μM or 10 μM NaD1R&A) is “No fluorescence was observed”. The “activity in growth inhibitory assays” value in assay [2] is “completely inactive”. For the same compound, in the assay on Fov hyphae [5], the “permeabilization of hyphae (SYTOX green)” value is given as “Permeabilization was not observed”.

On to “RsAFP2: plant defensin from radish (QKLCQRPSGTWSGVCGNNNACKNQCIRLEKARHGSCNYVFPAHKCICYFPC; UniProt P30230 30-80, looked up) [reference compound]”, for which, in the assay on Candida albicans, the effect on growth entry is given as “inhibited the growth”.

The term inhibition denotes how much of the control response was suppressed.
